Source: PMC10364322, “Evaluation of chronic drug-induced electrophysiological and cytotoxic effects using human-induced pluripotent stem cell-derived cardiomyocytes (hiPSC-CMs)” (Frontiers in Pharmacology, 2023)
Read-outs that look alike come from different tables or passages of the source.

Legend:
[1] = test system: hiPSC-CMs (iCell-Cardiomyocytes^2); assay: MEA impedance (cytotoxicity readout) in hiPSC-CMs
[2] = free therapeutic Cmax in humans; ref FDA-approved drug packages, PharmaPendium; cited from earlier work
[3] = test system: hiPSC-CMs (iCell-Cardiomyocytes^2)
Summary of the method: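 Spontaneous field potentials and impedance recorded by MEA at 37°C, 5% CO2 in hiPSC-CM monolayers (50 K/well, fibronectin-coated), 5-min baseline before compound; final DMSO 0.1%. Values are percent change from baseline, mean ± SD, compared with DMSO by Wilcoxon-Mann Whitney, interpreted against DMSO tolerance intervals.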

BR (beating rate), % change from baseline ([3]; 0.1 µM, 2h): 0±4%
Beating below threshold, number of observations/total well numbers ([3]; 0.1 µM, 2h): 0/5
Cessation of beating, number of observations/total well numbers ([3]; 0.1 µM, 2h): 0/5
EAD, number of observations/total well numbers ([3]; 0.1 µM, 2h): 0/5
FPDc (field-potential duration corrected by beat-rate), % change from baseline ([3]; 0.1 µM, 2h): 15.3±2.3 %
Flat T-wave-like, number of observations/total well numbers ([3]; 0.1 µM, 2h): 0/5
BR (beating rate), % change from baseline ([3]; 0.1 µM, 24h): -9±5%
Beating below threshold, number of observations/total well numbers ([3]; 0.1 µM, 24h): 0/5
Cessation of beating, number of observations/total well numbers ([3]; 0.1 µM, 24h): 0/5
EAD, number of observations/total well numbers ([3]; 0.1 µM, 24h): 0/5
FPDc (field-potential duration corrected by beat-rate), % change from baseline ([3]; 0.1 µM, 24h): 44.1±5.9 %
Flat T-wave-like, number of observations/total well numbers ([3]; 0.1 µM, 24h): 0/5
BR (beating rate), % change from baseline ([3]; 0.1 µM, 48h): -14±2 %
Beating below threshold, number of observations/total well numbers ([3]; 0.1 µM, 48h): 0/5
Cessation of beating, number of observations/total well numbers ([3]; 0.1 µM, 48h): 0/5
EAD, number of observations/total well numbers ([3]; 0.1 µM, 48h): 0/5
FPDc (field-potential duration corrected by beat-rate), % change from baseline ([3]; 0.1 µM, 48h): 40.3±1.1 %
Flat T-wave-like, number of observations/total well numbers ([3]; 0.1 µM, 48h): 0/5
BR (beating rate), % change from baseline ([3]; 0.1 µM, 72h): -17±2 %
Beating below threshold, number of observations/total well numbers ([3]; 0.1 µM, 72h): 0/5
Cessation of beating, number of observations/total well numbers ([3]; 0.1 µM, 72h): 0/5
EAD, number of observations/total well numbers ([3]; 0.1 µM, 72h): 0/5
FPDc (field-potential duration corrected by beat-rate), % change from baseline ([3]; 0.1 µM, 72h): 52.6±4.9 %
Flat T-wave-like, number of observations/total well numbers ([3]; 0.1 µM, 72h): 0/5
BR (beating rate), % change from baseline ([3]; 0.1 µM, 96h): -19±3%
Beating below threshold, number of observations/total well numbers ([3]; 0.1 µM, 96h): 0/5
Cessation of beating, number of observations/total well numbers ([3]; 0.1 µM, 96h): 0/5
EAD, number of observations/total well numbers ([3]; 0.1 µM, 96h): 0/5
FPDc (field-potential duration corrected by beat-rate), % change from baseline ([3]; 0.1 µM, 96h): 57.6±5.7 %
Flat T-wave-like, number of observations/total well numbers ([3]; 0.1 µM, 96h): 0/5
BR (beating rate), % change from baseline ([3]; 0.3 µM, 2h): -5±4%
Beating below threshold, number of observations/total well numbers ([3]; 0.3 µM, 2h): 0/5
Cessation of beating, number of observations/total well numbers ([3]; 0.3 µM, 2h): 0/5
EAD, number of observations/total well numbers ([3]; 0.3 µM, 2h): 0/5
FPDc (field-potential duration corrected by beat-rate), % change from baseline ([3]; 0.3 µM, 2h): 28.5±9.1 %
Flat T-wave-like, number of observations/total well numbers ([3]; 0.3 µM, 2h): 0/5
BR (beating rate), % change from baseline ([3]; 0.3 µM, 24h): -29±5 %
Beating below threshold, number of observations/total well numbers ([3]; 0.3 µM, 24h): 0/5
Cessation of beating, number of observations/total well numbers ([3]; 0.3 µM, 24h): 0/5
EAD, number of observations/total well numbers ([3]; 0.3 µM, 24h): 1/5
FPDc (field-potential duration corrected by beat-rate), % change from baseline ([3]; 0.3 µM, 24h): 112±14.9 %
Flat T-wave-like, number of observations/total well numbers ([3]; 0.3 µM, 24h): 1/5
BR (beating rate), % change from baseline ([3]; 0.3 µM, 48h): -31±2 %
Beating below threshold, number of observations/total well numbers ([3]; 0.3 µM, 48h): 0/5
Cessation of beating, number of observations/total well numbers ([3]; 0.3 µM, 48h): 0/5
EAD, number of observations/total well numbers ([3]; 0.3 µM, 48h): 0/5
FPDc (field-potential duration corrected by beat-rate), % change from baseline ([3]; 0.3 µM, 48h): 99.2±21.9 %
Flat T-wave-like, number of observations/total well numbers ([3]; 0.3 µM, 48h): 1/5
BR (beating rate), % change from baseline ([3]; 0.3 µM, 72h): -40±3 %
Beating below threshold, number of observations/total well numbers ([3]; 0.3 µM, 72h): 0/5
Cessation of beating, number of observations/total well numbers ([3]; 0.3 µM, 72h): 0/5
EAD, number of observations/total well numbers ([3]; 0.3 µM, 72h): 0/5
FPDc (field-potential duration corrected by beat-rate), % change from baseline ([3]; 0.3 µM, 72h): 126.3±24.4 %
Flat T-wave-like, number of observations/total well numbers ([3]; 0.3 µM, 72h): 1/5
BR (beating rate), % change from baseline ([3]; 0.3 µM, 96h): -43±6 %
Beating below threshold, number of observations/total well numbers ([3]; 0.3 µM, 96h): 0/5
Cessation of beating, number of observations/total well numbers ([3]; 0.3 µM, 96h): 0/5
EAD, number of observations/total well numbers ([3]; 0.3 µM, 96h): 0/5
FPDc (field-potential duration corrected by beat-rate), % change from baseline ([3]; 0.3 µM, 96h): 144.1±35.5 %
Flat T-wave-like, number of observations/total well numbers ([3]; 0.3 µM, 96h): 1/5
BR (beating rate), % change from baseline ([3]; 1 µM, 2h): -28±5 %
Beating below threshold, number of observations/total well numbers ([3]; 1 µM, 2h): 0/5
Cessation of beating, number of observations/total well numbers ([3]; 1 µM, 2h): 0/5
EAD, number of observations/total well numbers ([3]; 1 µM, 2h): 0/5
FPDc (field-potential duration corrected by beat-rate), % change from baseline ([3]; 1 µM, 2h): 110.2±0 %
Flat T-wave-like, number of observations/total well numbers ([3]; 1 µM, 2h): 4/5
BR (beating rate), % change from baseline ([3]; 1 µM, 24h): -59±5 %
Beating below threshold, number of observations/total well numbers ([3]; 1 µM, 24h): 0/5
Cessation of beating, number of observations/total well numbers ([3]; 1 µM, 24h): 0/5
EAD, number of observations/total well numbers ([3]; 1 µM, 24h): 1/5
Flat T-wave-like, number of observations/total well numbers ([3]; 1 µM, 24h): 5/5
BR (beating rate), % change from baseline ([3]; 1 µM, 48h): -65±2 %
Beating below threshold, number of observations/total well numbers ([3]; 1 µM, 48h): 0/5
Cessation of beating, number of observations/total well numbers ([3]; 1 µM, 48h): 0/5
EAD, number of observations/total well numbers ([3]; 1 µM, 48h): 2/5
Flat T-wave-like, number of observations/total well numbers ([3]; 1 µM, 48h): 5/5
BR (beating rate), % change from baseline ([3]; 1 µM, 72h): -68±2 %
Beating below threshold, number of observations/total well numbers ([3]; 1 µM, 72h): 1/5
Cessation of beating, number of observations/total well numbers ([3]; 1 µM, 72h): 1/5
EAD, number of observations/total well numbers ([3]; 1 µM, 72h): 0/5
Flat T-wave-like, number of observations/total well numbers ([3]; 1 µM, 72h): 3/5
BR (beating rate), % change from baseline ([3]; 1 µM, 96h): -68±0 %
Beating below threshold, number of observations/total well numbers ([3]; 1 µM, 96h): 0/5
Cessation of beating, number of observations/total well numbers ([3]; 1 µM, 96h): 4/5
EAD, number of observations/total well numbers ([3]; 1 µM, 96h): 0/5
Flat T-wave-like, number of observations/total well numbers ([3]; 1 µM, 96h): 1/5
time point from which cessation of beating occurred in all wells ([3]; 3 µM): 24 h
Beating below threshold, number of observations/total well numbers ([3]; 3 µM, 72h): 0/5
Cessation of beating, number of observations/total well numbers ([3]; 3 µM, 72h): 5/5
EAD, number of observations/total well numbers ([3]; 3 µM, 72h): 0/5
Flat T-wave-like, number of observations/total well numbers ([3]; 3 µM, 72h): 0/5
Beating below threshold, number of observations/total well numbers ([3]; 3 µM, 96h): 0/5
Cessation of beating, number of observations/total well numbers ([3]; 3 µM, 96h): 5/5
EAD, number of observations/total well numbers ([3]; 3 µM, 96h): 0/5
Flat T-wave-like, number of observations/total well numbers ([3]; 3 µM, 96h): 0/5
BR (beating rate), % change from baseline ([3]; 3 µM, 2h): -58±4 %
Beating below threshold, number of observations/total well numbers ([3]; 3 µM, 2h): 0/5
Cessation of beating, number of observations/total well numbers ([3]; 3 µM, 2h): 0/5
EAD, number of observations/total well numbers ([3]; 3 µM, 2h): 0/5
EAD-like events ([3]; 3 µM, 2h): EAD-like events occurred
Flat T-wave-like, number of observations/total well numbers ([3]; 3 µM, 2h): 5/5
BR (beating rate), % change from baseline ([3]; 3 µM, 24h): -71±1 %
Beating below threshold, number of observations/total well numbers ([3]; 3 µM, 24h): 0/5
Cessation of beating, number of observations/total well numbers ([3]; 3 µM, 24h): 3/5
EAD, number of observations/total well numbers ([3]; 3 µM, 24h): 0/5
Flat T-wave-like, number of observations/total well numbers ([3]; 3 µM, 24h): 2/5
Beating below threshold, number of observations/total well numbers ([3]; 3 µM, 48h): 1/5
Cessation of beating, number of observations/total well numbers ([3]; 3 µM, 48h): 4/5
EAD, number of observations/total well numbers ([3]; 3 µM, 48h): 0/5
Flat T-wave-like, number of observations/total well numbers ([3]; 3 µM, 48h): 0/5
Compound: COc1cc2c(Nc3ccc(Br)cc3F)ncnc2cc1OCC1CCN(C)CC1 [Vandetanib]
Imp (impedance), % change from baseline ([1]; 0.1 µM, 2h): -3±2%
Imp (impedance), % change from baseline ([1]; 0.1 µM, 24h): -9±2%
Imp (impedance), % change from baseline ([1]; 0.1 µM, 48h): -7±2%
Imp (impedance), % change from baseline ([1]; 0.1 µM, 72h): -9±3%
Imp (impedance), % change from baseline ([1]; 0.1 µM, 96h): -6±3%
Imp (impedance), % change from baseline ([1]; 0.3 µM, 2h): -2±1%
Imp (impedance), % change from baseline ([1]; 0.3 µM, 24h): -9±4%
Imp (impedance), % change from baseline ([1]; 0.3 µM, 48h): -3±3%
Imp (impedance), % change from baseline ([1]; 0.3 µM, 72h): -5±4%
Imp (impedance), % change from baseline ([1]; 0.3 µM, 96h): -6±5%
Imp (impedance), % change from baseline ([1]; 1 µM, 2h): -3±2%
Imp (impedance), % change from baseline ([1]; 1 µM, 24h): -11±3%
Imp (impedance), % change from baseline ([1]; 1 µM, 48h): -13±4%
Imp (impedance), % change from baseline ([1]; 1 µM, 72h): -20±4 %
Imp (impedance), % change from baseline ([1]; 1 µM, 96h): -20±5%
Imp (impedance), % change from baseline ([1]; 3 µM, 72h): -44±7 %
Imp (impedance), % change from baseline ([1]; 3 µM, 96h): -53±5 %
Imp (impedance), % change from baseline ([1]; 3 µM, 2h): 2±4%
Imp (impedance), % change from baseline ([1]; 3 µM, 24h): -16±3%
Imp (impedance), % change from baseline ([1]; 3 µM, 48h): -30±5 %
Free Cmax [2]: 0.4 µM
